Results on three compounds are retold here after ChEMBL document CHEMBL1154774, “Neglected tropical diseases: multi-target-directed ligands in the search for novel lead candidates against Trypanosoma and Leishmania” (J Med Chem, 2009).

As usually defined, the IC50 is the concentration that gives 50% inhibition.

Data set [1] is described as follows: Selectivity index, ratio of cytotoxicity against mammalian cells to IC50 for Trypanosoma brucei rhodesiense. The settings on record: read-out: Selectivity Index. In kind it is toxicity, cell-based.
The nature of data set [2]: Selectivity index, ratio of cytotoxicity against mammalian cells to IC50 for Trypanosoma cruzi Tulahuen 2. In kind it is toxicity, cell-based. The settings on record: read-out: Selectivity Index.
Data set [3] has as its target Trypanothione reductase (Trypanosoma cruzi, UniProt P28593). The data set is described as follows: Inhibition of Trypanosoma cruzi trypanothione reductase.
The test system of data set [4] is Trypanosoma cruzi. The data set is described as follows: Antitrypanosomal activity against Trypanosoma cruzi Tulahuen 2. In kind it is functional, organism-based.
Data set [5] has as its system Leishmania mexicana. The data set is described as follows: Leishmanistatic activity against Leishmania mexicana. In kind it is functional.

Trypanothione reductase, sequence (P28593 whole entry): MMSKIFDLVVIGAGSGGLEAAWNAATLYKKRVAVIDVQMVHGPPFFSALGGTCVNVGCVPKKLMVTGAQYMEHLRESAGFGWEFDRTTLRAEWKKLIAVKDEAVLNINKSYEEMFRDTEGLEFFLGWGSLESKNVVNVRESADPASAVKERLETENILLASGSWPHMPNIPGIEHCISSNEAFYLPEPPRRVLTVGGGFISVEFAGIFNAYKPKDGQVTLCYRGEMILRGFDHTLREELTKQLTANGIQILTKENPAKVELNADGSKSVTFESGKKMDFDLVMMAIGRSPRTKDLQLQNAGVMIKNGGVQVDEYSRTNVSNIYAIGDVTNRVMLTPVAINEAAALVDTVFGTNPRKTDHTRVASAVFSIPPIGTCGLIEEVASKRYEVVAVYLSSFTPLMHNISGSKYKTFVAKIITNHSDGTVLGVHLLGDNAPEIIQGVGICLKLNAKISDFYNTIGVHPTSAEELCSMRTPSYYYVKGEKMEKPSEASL

Take `O=C1C=C(Oc2ccccc2)C(=O)c2ccccc21`: the selectivity ratio in data set [1] amounted to 74.

Turning to `NC(=S)N/N=C/c1ccc(OCc2ccc3no[n+]([O-])c3c2)cc1`, the selectivity ratio in data set [2] was 27. Moreover, the IC50 in data set [3] was found to be 43 µM; in data set [4], 15 µM.

Consider `C/C(=N/Nc1ccccn1)[C@H]1CC[C@H]2[C@@H]3CC[C@H]4C[C@@H](O)CC[C@]4(C)[C@H]3CC[C@]12C`, for which the “growth inhibition (GI)” value in data set [5] is 39%.
